Tests used:
[1] = system: PTP1B; assay: Mutational analysis of the inhibitor binding site (fractional change in inhibition); type: biochemical, H. sapiens; conditions: FIG. 24C
Excerpt: FIG. 24B illustrates exemplary disruptive mutations introduced at each site. Mutations were designed to alter the size and/or polarity of targeted residues. […] Error bars denote SE (propagated from n≥9 independent measurements of each V in Eq. 1).

[2] = target: T1, PTP1B (Homo sapiens, UniProt P18031); assay: PTP1B-catalyzed hydrolysis of pNPP in the presence of inhibitor; type: biochemical, H. sapiens
T1 construct: made in house; host or cells: E. coli BL21 (B121 [sic])
T1 sequence (P18031 1-435): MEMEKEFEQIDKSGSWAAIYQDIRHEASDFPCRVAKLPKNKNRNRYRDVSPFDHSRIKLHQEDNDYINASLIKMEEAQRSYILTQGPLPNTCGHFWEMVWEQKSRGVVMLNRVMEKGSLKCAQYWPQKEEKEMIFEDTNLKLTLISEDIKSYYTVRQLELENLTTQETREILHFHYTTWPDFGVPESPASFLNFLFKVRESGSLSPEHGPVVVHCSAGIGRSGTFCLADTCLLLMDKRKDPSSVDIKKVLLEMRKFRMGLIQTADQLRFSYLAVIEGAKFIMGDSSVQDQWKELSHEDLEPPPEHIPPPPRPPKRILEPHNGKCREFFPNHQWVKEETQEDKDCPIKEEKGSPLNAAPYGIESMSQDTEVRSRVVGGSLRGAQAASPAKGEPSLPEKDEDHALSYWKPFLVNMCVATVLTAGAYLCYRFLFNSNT
Excerpt: FIG. 14A illustrates Abietic acid. […] FIG. 14C illustrates Abietic acid (green) docked in the allosteric site of PTP1B. […] Inset highlights active site in black.
FIG. 16A-B illustrates exemplary terpenoids showing differences in stereochemistry, shape, size, and chemical functionality. FIG. 16A illustrates clockwise from abietic acid (1), neoabietic acid (2), levopimaric acid (3), dihydroabietic acid (4). […] No inhibitor. Error bars=standard error (n>5).
Lines show a fit to a model for mixed inhibition. FIG. 22D an exemplary illustration of this model, where the inhibitor (I) binds to the enzyme (E) and enzyme-substrate complex (ES) with different affinities.
Improved inhibitors. We assessed the ability of minor structural perturbations of abietadiene derivatives to yield improved inhibitors by comparing four structurally related (and commercially available) molecules (FIG. 16): abietic, neoabietic, levopimaric, and dihydroabietic acid.
Statistical Analysis of Kinetic Models. We evaluated four kinetic models of inhibition as described previously (19). In brief, we used an F-test to compare a two-parameter mixed model to several single-parameter models, and we used Akaike's Information Criterion (AIC, or Ai) to compare the single-parameter models to one another. […] Exemplary Estimation of IC50. […]

[3] = target: T1, PTP1B; assay: Binding-induced quenching of tryptophan fluorescence of PTP1B; design: species or system H. sapiens; conditions: FIG. 17C
Excerpt: FIG. 17A N-HSQC spectra of PTP1B (red) and PTP1B bound to abietic acid (blue). Inset: Crystal structure of PTP1B. […] Error bars represent standard error (n>5).
Binding-induced changes in the tryptophan fluorescence of PTP1B. A screen in which inhibition of PTP1B is linked to changes in tryptophan fluorescence (FIG. 21D) will enable rapid screening of moderately sized libraries (10^3-10^4)^27 in microtiter plates. Our use of binding-induced changes in tryptophan fluorescence is described in 5.6.

effect of five mutations distributed across PTP1B on inhibition [1]	Ki ([2]; commercially available abietane-type acids, FIG. 16, read-out: K, (inhibition of PTP1B))	concentration detected by change in tryptophan fluorescence of PTP1B [3]	SMILES	inhibition relative to abietic acid [2]
negligible effect	–	–	CCc1oc2cc(S(=O)(=O)Nc3ccc(S(=O)(=O)Nc4nccs4)cc3)ccc2c1C(=O)c1cc(Br)c(O)c(Br)c1 [BBR, 3-(3,5-Dibromo-4-hydroxy-benzoyl)-2-ethyl-benzofuran-6-sulfonicacid-(4-(thiazol-2-ylsulfamyl)-phenyl)-amide]	–
reduced inhibition	250 µM	50 µM	CC(C)C1=CC2=CC[C@@H]3[C@](C)(CCC[C@@]3(C)C(=O)O)[C@H]2CC1 [abietic acid]	–
–	–	–	CC(C)C1C=C2CCC3C(C)(C(=O)O)CCCC3(C)C2CC1 (stereo not drawn) [dihydroabietic acid]	ten times more inhibitory than abietic acid

SMILES	effect of five mutations distributed across PTP1B on inhibition [1]	Ki ([2]; commercially available abietane-type acids, FIG. 16, read-out: K, (inhibition of PTP1B))	concentration detected by change in tryptophan fluorescence of PTP1B [3]	inhibition relative to abietic acid [2]
Cl.O=C(O)C(=O)Nc1sc2c(c1C(=O)O)CCNC2 [TCS401, 2-[(Carbox-ycarbonyl)amino]-4,5,6,7-tetrahydro-thieno[2,3-c]pyridine-3-carboxylic acid hydrochloride]	reduced inhibition	–	–	–
